15 compounds from patent US6858647B2, “Retinoid compounds suited for antibacterial applications” (Galderma Research & Development S.N.C., priority 2000, dated 2005) can be followed below.

One experiment concerns RAR receptor. Kind of experiment: Biological activity of RAR receptor antagonist / agonist type. The settings on record: stated in words, no test described.
For experiment [1], the system named is bacterium Staphylococcus aureus. Kind of experiment: Minimum bactericidal concentration (MBC). Type of experiment: cell-based. The following applies: Table IV, Example 2, mean of at least three tests, bactericidal activity (MBC). How it is done: The technique employed to determine the minimum bactericidal concentration, or MBC, was that described in Bactéricidie, P. Courvalin et al., Editions Maloine, 1990, chapter 7, page 335.
This minimum bactericidal concentration provides an indication as to the bactericidal effect of the test compounds, i.e., the capacity of these compounds to kill the bacterium.
(§1) Each compound of the invention and each comparative example taken from the Pierre Fabre patent application No. FR-2,736,548 was tested at least three times. The mean of the test results was calculated, along with the standard deviation. The reference compound used was gentamycin.

The test system of experiment [2] is Staphylococcus aureus CIP52.1. The experiment is described as follows: Minimum inhibitory concentration (MIC), NCCLS dilution antimicrobial susceptibility test. Type of experiment: cell-based. The settings on record: mean of at least three tests, read-out: MIC RESULTS MEAN.
Description: The bacterium Staphylococcus aureus CIP52.1 may be used in order to determine for each test compound the minimum inhibitory concentration for the bacterium, or MIC, expressed in μM.
The technique employed to determine the minimum inhibitory concentration or MIC was that described in the publication entitled “National committee for clinical laboratory standards” Vol. 13, No. 25, December 1993; Methods for dilution antimicrobial susceptibility tests for bacteria that grow aerobically-third edition, approved standard”. This minimum inhibitory concentration gives an indication as to the bacteriostatic effect of the test compounds, i.e., the capacity of these compounds to stop the proliferation of the bacterium.
Each compound of the invention was tested at least three times. The average of the test results was calculated, along with the standard deviation. The reference compound used was gentamycin.
The technique employed to determine the MIC values was the same as that described in Example 1.
as §1

Where [3] appears, read: Staphylococcus aureus, CIP52, Table II, Example 1, bacteriostatic effect.
Where [4] appears, read: Staphylococcus aureus, CIP52, Table III, Example 2, comparison with retinaldehydes.
Setting [5] is: Table II, Example 1, bacteriostatic effect.
Setting [6] is: Table III, Example 2, comparison with retinaldehydes.

Converted amounts (≈) assume the structure as drawn. Like-named read-outs stand apart in the source and are kept apart here.

As for `CC(C)(C)C1=CC(=CC#Cc2ccc(C(=O)O)cc2)C=C(C(C)(C)C)C1=O` [Compound 5, 4-[3-(3,5-Di-tert-butyl-4-oxocyclohexa-2,5-dienylidene)prop-1-ynyl]benzoic acid], the “biological activity at RAR receptor (antagonist or agonist type)” value (“biological activity at RAR receptor” below) with RAR receptor is “RAR receptor agonist type”. The MIC in experiment [1] (Staphylococcus aureus) turned out to be 13.2 µM (≈ 4.78 µg/mL); in experiment [2] (setting [3]) it was 1.25 µM (≈ 0.453 µg/mL); in experiment [2] (setting [4]), 3.3 µM (≈ 1.2 µg/mL).
For `COc1c(O)cc(-c2ccc3cc(C(=O)O)ccc3c2)cc1C12CC3CC(CC(C3)C1)C2` [Compound 1, 6-[3-(1-Adamantyl)-4-methoxy-5-hydroxyphenyl]-2-naphthoic acid], in that order: “RAR receptor agonist type”, 12.5 µM (≈ 5.36 µg/mL), 1.04 µM (≈ 0.446 µg/mL) and 1.3 µM (≈ 0.557 µg/mL).
For gentamycin [reference compound], the minimal inhibitory concentration (MIC) was determined as 0.26 µM in experiment [1], 0.11 µM in experiment [2] (setting [5]) and 0.14 µM in experiment [2] (setting [6]).
Take `Cc1ccc(-c2ccccc2C=CC#Cc2ccc(C(=O)O)cc2)cc1` [Compound 37, 4-[4-(4′-Methylbiphenyl-2-yl)but-3-en-1-ynyl]benzoic acid]: the “biological activity at RAR receptor” value in the experiment on RAR receptor is “RAR receptor antagonist type”. Also, the minimum inhibitory concentration (MIC) in experiment [2] (setting [3]) came out at 4.16 µM (≈ 1.41 µg/mL).
As to `CC1(C)CCC(C)(C)c2cc(-c3cc(-c4ccc(C(=O)O)cc4O)ccc3-c3ccccc3)ccc21` [Compound 10, 2″-Hydroxy-2′-(5,5,8,8-tetramethyl-5,6,7,8-tetrahydronaphthalen-2-yl) [1,1′,4′,1″]terphenyl-4″-carboxylic acid], the “biological activity at RAR receptor” value with RAR receptor was “RAR receptor agonist type”. For the same compound, the minimum inhibitory concentration (MIC) in experiment [2] (setting [5]) is on record as 1.66 µM (≈ 0.791 µg/mL).
For `O=C(O)c1ccc(-c2ccc3cc(O)c(C45CC6CC(CC(C6)C4)C5)cc3c2)cc1` [Compound 16], in that order: “RAR receptor agonist type” and 2.50 µM (≈ 0.996 µg/mL).
Consider `CC1(C)CCC(C)(C)c2cc3sc(-c4ccc(C(=O)O)cc4)cc3cc21` [Compound 15, 4-(5,5,8,8-Tetramethyl-5,6,7,8-tetrahydronaphtho-[2,3-b]thiophen-2-yl)benzoic acid], for which, in the experiment with RAR receptor, the “biological activity at RAR receptor” value is “RAR receptor agonist type”. For the same compound, the minimum inhibitory concentration (MIC) in experiment [2] (setting [3]) worked out at 2.5 µM (≈ 0.911 µg/mL).
For `COCOc1ccc(/C=C/C#Cc2ccc(C(=O)O)cc2)c(-c2ccc(C)cc2)c1` [Compound 31, (E)-4-[4-(5-Methoxymethoxy-4′ -methylbiphenyl-2-yl)but-3-en-1-ynyl]benzoic acid], in that order: “RAR receptor antagonist type” and 3.33 µM (≈ 1.33 µg/mL).
For the compound `CC1=C(/C=C/C(C)=C/C=C/C(C)=C/C=O)C(C)(C)CCC1` [Comparative Example 1, all-trans-retinaldehyde, reference compound], the MIC is 26.33 µM (≈ 7.49 µg/mL) in experiment [1] and 11.64 µM (≈ 3.31 µg/mL) in experiment [2] (setting [6]).
Turning to `CC1(C)CCC(C)(C)c2cc(-c3cc(-c4ccc(C(=O)O)cc4)ccc3-c3ccc(O)cc3)ccc21` [Compound 9, 4-Hydroxy-2′(5,5,8,8-tetramethyl-5,6,7,8-tetrahydronaphthalen-2-yl) [1,1′,4′,1″]terphenyl-4″-carboxylic acid], the “biological activity at RAR receptor” value with RAR receptor is reported as “RAR receptor agonist type”. For the same compound, the minimum inhibitory concentration (MIC) in experiment [2] (setting [5]) was 1.66 µM (≈ 0.791 µg/mL).
`COCOc1cccc(C=CC#Cc2ccc(C(=O)O)cc2)c1-c1ccc(C)cc1` [Compound 2, 4-[4-(6-Methoxymethoxy-4′-methylbiphenyl-2-yl)but-3-en-1-ynyl]benzoic acid]: the “biological activity at RAR receptor” value in the experiment on RAR receptor was “RAR receptor antagonist type”. The minimum inhibitory concentration (MIC) was found to be 16.6 µM (≈ 6.63 µg/mL) in experiment [1] (Staphylococcus aureus), 1.04 µM (≈ 0.414 µg/mL) in experiment [2] (setting [3]) and 2.45 µM (≈ 0.976 µg/mL) in experiment [2] (setting [4]).
Consider `COCOc1ccccc1-c1ccc(-c2ccc(C(=O)O)cc2)cc1-c1ccc2c(c1)C(C)(C)CCC2(C)C` [Compound 34, 2-Methoxymethoxy-2′-(5,5,8,8-tetramethyl-5,6,7,8-tetrahydronaphthalen-2-yl) [1,1′,4′1″]terphenyl-4″carboxylic acid], for which, in the experiment on RAR receptor, the “biological activity at RAR receptor” value is reported as “RAR receptor antagonist type”. Moreover, in experiment [2] (setting [5]), the MIC turned out to be 3.33 µM (≈ 1.73 µg/mL).
For `CC1=C(/C=C/C(C)=C\C=C\C(C)=C\C=O)C(C)(C)CCC1` [Comparative Example 2, 9-cis-retinaldehyde, reference compound], the MIC worked out at 16.63 µM (≈ 4.73 µg/mL) in experiment [1] and 11.52 µM (≈ 3.28 µg/mL) in experiment [2] (setting [6]).
For the compound `CC1(C)CCC(C)(C)c2cc(-c3cc(-c4ccc(C(=O)O)cc4)ccc3-c3ccccc3)c(O)cc21` [Compound 14, 2′-(3-Hydroxy-5,5,8,8-tetramethyl-5,6,7,8-tetrahydronaphthalen-2-yl) [1,1′,4′,1″]terphenyl-4″-carboxylic acid], the “biological activity at RAR receptor” value in the experiment with RAR receptor is “RAR receptor agonist type”. Also, the MIC in experiment [2] (setting [5]) is on record as 2.08 µM (≈ 0.991 µg/mL).
`CC1=C(/C=C/C(C)=C/C=C/C(C)=C\C=O)C(C)(C)CCC1` [Comparative Example 3, 13-cis-retinaldehyde, reference compound]: the MIC amounted to 15.97 µM (≈ 4.54 µg/mL) in experiment [1] and 7.64 µM (≈ 2.17 µg/mL) in experiment [2] (setting [6]).

For orientation: MIC means the smallest concentration in the dilution series that meets the test's criterion for growth inhibition.
